These compounds were tested against T1, human S1P1 receptor (Homo sapiens, UniProt P21453) (assay: GTP γ35S binding assay for S1P1 activity). Conditions: membranes of cells stably expressing the S1P1 receptor, test compounds 0.08 to 5,000 nM, 30 min at 25° C.
T1 construct: expressed in transfected cells; membranes used
Format: biochemical
Description: Compounds were synthesized and tested for S1P1 activity using the GTP γ^35S binding assay. These compounds may be assessed for their ability to activate or block activation of the human S1P1 receptor in cells stably expressing the S1P1 receptor.
GTP γ^35S binding was measured in the medium containing (mM) HEPES 25, pH 7.4, MgCl2 10, NaCl 100, dithitothreitol 0.5, digitonin 0.003%, 0.2 nM GTP γ^35S, and 5 μg membrane protein in a volume of 150 μl. Test compounds were included in the concentration range from 0.08 to 5,000 nM unless indicated otherwise. Membranes were incubated with 100 μM 5′-adenylylimmidodiphosphate for 30 min, and subsequently with 10 μM GDP for 10 min on ice. Drug solutions and membrane were mixed, and then reactions were initiated by adding GTP γ^35S and continued for 30 min at 25° C. Reaction mixtures were filtered over Whatman GF/B filters under vacuum, and washed three times with 3 mL of ice-cold buffer (HEPES 25, pH7.4, MgCl2 10 and NaCl 100). Filters were dried and mixed with scintillant, and counted for ^35S activity using a β-counter. Agonist-induced GTP γ^35S binding was obtained by subtracting that in the absence of agonist. Binding data were analyzed using a non-linear regression method. In case of antagonist assay, the reaction mixture contained 10 nM S1P in the presence of test antagonist at concentrations ranging from 0.08 to 5000 nM.

T1 sequence (P21453 whole entry): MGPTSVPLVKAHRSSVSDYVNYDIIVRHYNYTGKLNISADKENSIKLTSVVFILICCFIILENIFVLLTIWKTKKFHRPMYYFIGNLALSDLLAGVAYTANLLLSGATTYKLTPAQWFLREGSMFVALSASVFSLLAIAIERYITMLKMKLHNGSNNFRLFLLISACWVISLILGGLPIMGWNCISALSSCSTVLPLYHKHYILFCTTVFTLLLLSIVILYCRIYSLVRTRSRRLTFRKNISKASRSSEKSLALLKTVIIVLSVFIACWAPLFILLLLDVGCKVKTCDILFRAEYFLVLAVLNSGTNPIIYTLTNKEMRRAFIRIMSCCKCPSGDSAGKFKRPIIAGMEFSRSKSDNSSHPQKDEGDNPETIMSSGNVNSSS

Going from `C/C(=N\OCC(Cc1ccc(C)c(C)c1)c1cccc(C)c1)c1ccc(CN2CC(C(=O)O)C2)cc1` (centres unmarked) [Compound 1, 1-(4-{(1E)-N-[2-(3-methylphenyl)-3-(3,4-dimethylphenyl)propoxy]ethanimidoyl}benzyl)azetidine-3-carboxylic acid] to `C/C(=N\OCC(Cc1ccc(C)c(C)c1)c1cccc(Cl)c1)c1ccc(CN2CC(C(=O)O)C2)cc1` (centres unmarked) [Compound 2, 1-(4-{(1E)-N-[2-(3-chlorophenyl)-3-(3,4-dimethylphenyl)propoxy]ethanimidoyl}benzyl)azetidine-3-carboxylic acid], the EC50 falls from 16.5 nM to 9.05 nM (1.8-fold). The second is the more potent here.

First: C/C(=N\OCc1ccc(CN2CC(C(=O)O)C2)cc1)C(Cc1ccc(C)c(C)c1)c1cccc(Cl)c1 (centres unmarked) [Compound 3, 1-{4-[({[(1E)-2-(3-chlorophenyl)-3-(3,4-dimethylphenyl)-1-methylpropylidene]amino}oxy)methyl]benzyl}azetidine-3-carboxylic acid]
Second: C/C(=N\OCc1ccc(CN2CC(C(=O)O)C2)cc1)C(Cc1ccc(C)c(C)c1)c1cc(F)cc(F)c1 (centres unmarked) [Compound 4, 1-{4-[({[(1E)-2-(3,5-difluorophenyl)-3-(3,4-dimethylphenyl)-1-methylpropylidene]amino}oxy)methyl]benzyl}azetidine-3-carboxylic acid]
The EC50 of the first is 13-fold higher: 230 nM for the first, 17.5 nM for the second. The second is the more potent here.

Work on `C/C(=N\OCC(Oc1ccc(C)c(C)c1)c1cccc(Cl)c1)c1ccc(CN2CC(C(=O)O)C2)cc1` (centres unmarked) [Compound 8, 1-(4-{(1E)-N-[2-(3-chlorophenyl)-2-(3,4-dimethylphenoxy)ethoxy]ethanimidoyl}benzyl)azetidine-3-carboxylic acid] yielded an EC50 of 163 nM.

Source: US8518932B2, “Oxime azetidine derivatives as sphingosine 1-phosphate (S1P) receptor modulators” (Allergan, Inc., priority 2010, dated 2013)
